Source: ChEMBL document CHEMBL1201862, “PubChem BioAssay data set” (2004)
The source made the active and inactive calls.

How the values were obtained:
[1] = system: H9c2; assay: cells; format: functional, cell-based; details: Rattus norvegicus, H9c2, Myocardium;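 further: confirmatory concentration-response retest of ultra-high-throughput screening hits for modulation of myocardial damage; cell death induced by hydrogen peroxide oxidative stress; compound pretreatment for 60 min then peroxide exposure for 2 h; potency is for protecting the cells against peroxide damage rather than for killing them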
[2] = Counterscreen for inhibitors of Trypanosoma brucei methionyl tRNA synthetase (MetRS): Luminescence-based cell-based high throughput dose response assay to identify compounds that are cytotoxic to Jurkat human T lymphocyte cells.; format: functional
[3] = biological target: T1, Methionyl-tRNA synthetase, putative (Trypanosoma brucei brucei, UniProt Q38C91); format: functional, Trypanosoma brucei brucei strain 927/4 GUTat10.1
T1 sequence (Q38C91 whole entry): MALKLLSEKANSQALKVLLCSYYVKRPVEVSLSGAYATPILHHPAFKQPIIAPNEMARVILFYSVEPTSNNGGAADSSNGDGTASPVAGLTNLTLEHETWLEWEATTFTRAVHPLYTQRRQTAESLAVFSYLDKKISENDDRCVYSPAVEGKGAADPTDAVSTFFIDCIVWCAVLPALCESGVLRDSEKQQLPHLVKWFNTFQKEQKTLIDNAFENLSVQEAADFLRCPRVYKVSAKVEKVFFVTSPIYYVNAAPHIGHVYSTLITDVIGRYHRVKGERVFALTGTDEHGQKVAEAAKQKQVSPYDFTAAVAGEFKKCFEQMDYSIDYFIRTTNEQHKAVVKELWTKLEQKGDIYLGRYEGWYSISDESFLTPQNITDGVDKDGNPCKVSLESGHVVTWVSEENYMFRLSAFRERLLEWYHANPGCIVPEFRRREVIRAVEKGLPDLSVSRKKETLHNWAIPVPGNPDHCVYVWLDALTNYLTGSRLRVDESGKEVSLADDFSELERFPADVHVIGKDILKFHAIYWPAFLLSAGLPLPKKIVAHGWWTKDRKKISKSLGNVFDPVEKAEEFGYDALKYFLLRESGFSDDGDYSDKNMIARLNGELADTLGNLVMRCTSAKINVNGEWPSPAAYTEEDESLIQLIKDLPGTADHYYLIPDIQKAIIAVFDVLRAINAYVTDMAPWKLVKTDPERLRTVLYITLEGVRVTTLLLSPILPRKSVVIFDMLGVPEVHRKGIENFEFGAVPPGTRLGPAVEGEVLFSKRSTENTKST

[4] = biological target: T1, Methionyl-tRNA synthetase, putative; format: functional, Trypanosoma brucei brucei strain 927/4 GUTat10.1; remark: listed apart in the source
[5] = biological target: Ras and Rab interactor 1/Tyrosine-protein kinase ABL1 (Homo sapiens, UniProt P00519+Q13671); format: functional;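 further: biochemical TR-FRET dose-response test measuring inhibition of binding between Rin1 and Abl proteins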
[6] = biological target: Large T antigen (Simian virus 40, UniProt P03070); format: functional, Betapolyomavirus macacae;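 further: Confirmatory-stage PubChem screen for compounds that inhibit SV40 T antigen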
[7] = biological target: T2, Voltage-gated N-type calcium channel alpha-1B subunit/Amyloid beta A4 precursor protein-binding family A member 1 (Homo sapiens, UniProt Q00975+Q02410); format: protein assay
[8] = biological target: T2, Voltage-gated N-type calcium channel alpha-1B subunit/Amyloid beta A4 precursor protein-binding family A member 1; format: protein assay; remark: listed apart in the source
[9] = biological target: T3, Aminopeptidase N (Plasmodium falciparum FcB1/Columbia, UniProt O96935); assay: malaria alanyl aminopeptidase activity blockers – biochemical, fluorogenic H-Leu-NHMec substrate, 1536-well (AID 1445); design: species or system Plasmodium falciparum 3D7, 3D7
T3 sequence (O96935 whole entry): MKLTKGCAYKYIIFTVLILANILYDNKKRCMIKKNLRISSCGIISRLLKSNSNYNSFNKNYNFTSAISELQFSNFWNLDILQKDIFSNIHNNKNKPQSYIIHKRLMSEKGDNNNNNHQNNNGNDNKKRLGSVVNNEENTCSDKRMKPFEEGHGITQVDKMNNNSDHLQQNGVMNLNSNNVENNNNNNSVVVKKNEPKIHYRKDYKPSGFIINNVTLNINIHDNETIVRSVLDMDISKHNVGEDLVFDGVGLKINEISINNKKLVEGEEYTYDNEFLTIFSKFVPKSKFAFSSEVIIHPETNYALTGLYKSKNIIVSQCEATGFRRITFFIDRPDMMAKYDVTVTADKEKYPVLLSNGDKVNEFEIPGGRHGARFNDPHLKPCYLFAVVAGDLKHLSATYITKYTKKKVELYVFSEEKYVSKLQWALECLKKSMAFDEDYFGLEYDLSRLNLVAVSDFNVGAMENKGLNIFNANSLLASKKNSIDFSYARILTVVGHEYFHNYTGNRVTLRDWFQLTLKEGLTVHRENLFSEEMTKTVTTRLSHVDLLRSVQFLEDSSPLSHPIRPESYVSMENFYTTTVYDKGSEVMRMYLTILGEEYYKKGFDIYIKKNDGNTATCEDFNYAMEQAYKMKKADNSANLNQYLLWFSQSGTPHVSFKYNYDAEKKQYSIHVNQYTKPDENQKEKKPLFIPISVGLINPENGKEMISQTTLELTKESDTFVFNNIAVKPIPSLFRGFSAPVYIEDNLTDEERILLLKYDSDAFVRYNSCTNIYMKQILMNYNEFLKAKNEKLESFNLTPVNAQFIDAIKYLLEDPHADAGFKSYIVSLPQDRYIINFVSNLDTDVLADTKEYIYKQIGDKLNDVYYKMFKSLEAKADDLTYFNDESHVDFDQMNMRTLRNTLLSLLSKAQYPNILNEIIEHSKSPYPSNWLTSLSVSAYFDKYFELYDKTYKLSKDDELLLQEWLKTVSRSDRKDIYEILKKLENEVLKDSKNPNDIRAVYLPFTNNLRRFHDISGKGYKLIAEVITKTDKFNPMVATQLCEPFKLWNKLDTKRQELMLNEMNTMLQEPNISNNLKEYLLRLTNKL

[10] = DRD fibroblast viability loss – cell-based, non-viral oncogenic, luminescence, dose response (AID 1934); format: functional; details: Homo sapiens
[11] = system: BJ; assay: BJ-TERT-LT-ST fibroblast viability loss – cell-based, RAS-independent, luminescence, dose response (AID 1935); format: functional; details: Homo sapiens;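 further: BJ fibroblasts immortalized with TERT plus LT and ST oncogenes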
[12] = system: BJ; assay: BJ-TERT fibroblast viability loss – cell-based, RAS-independent, luminescence, dose response (AID 1933); format: functional; details: Homo sapiens
[13] = system: BJ; assay: cells; format: functional, cell-based; details: Homo sapiens
[14] = non-specific 3'UTR reporter inhibition in Clone20-Shn3RL – cell-based, Renilla luciferase, cherry-picked, counter-screen for Shn3 inhibitor project, dose response (AID 624133); format: functional
[15] = loss of viability in HepG2 cells – cell-based, CellTiter-Glo, cherry-picked, cytotoxicity control for Shn3 inhibitor project, dose response (AID 624134); format: functional
[16] = reduction of Shn3 3'UTR-driven luciferase in osteoblasts – cell-based, Clone20 osteoblasts, firefly luciferase, cherry-picked, dose response (AID 624132); format: functional;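 further: firefly luciferase luminescence from reporter carrying the Shn3 3'UTR in osteoblasts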
[17] = biological target: T4, Leucine aminopeptidase (Plasmodium falciparum 3D7, UniProt Q8IL11); assay: P. falciparum M17LAP inhibitors, primary screen, biochemical, fluorogenic H-Leu-NHMec substrate, 1536-well (AID 1619); format: functional
T4 sequence (Q8IL11 whole entry): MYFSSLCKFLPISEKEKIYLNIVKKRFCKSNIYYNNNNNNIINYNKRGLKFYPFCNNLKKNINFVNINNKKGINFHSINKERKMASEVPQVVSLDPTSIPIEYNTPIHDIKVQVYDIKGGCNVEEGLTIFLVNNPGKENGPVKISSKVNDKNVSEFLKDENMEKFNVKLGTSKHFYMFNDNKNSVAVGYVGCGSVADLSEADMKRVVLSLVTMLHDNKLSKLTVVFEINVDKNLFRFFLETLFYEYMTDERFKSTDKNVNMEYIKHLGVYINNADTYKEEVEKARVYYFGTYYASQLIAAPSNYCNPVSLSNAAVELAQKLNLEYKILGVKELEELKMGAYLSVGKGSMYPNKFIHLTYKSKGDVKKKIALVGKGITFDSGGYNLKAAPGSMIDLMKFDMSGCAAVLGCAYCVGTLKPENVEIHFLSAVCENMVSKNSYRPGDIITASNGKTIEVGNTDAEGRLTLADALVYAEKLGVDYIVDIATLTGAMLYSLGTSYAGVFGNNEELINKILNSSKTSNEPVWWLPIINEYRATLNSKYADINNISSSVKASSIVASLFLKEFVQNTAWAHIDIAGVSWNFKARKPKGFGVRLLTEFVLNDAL

[18] = Luminescence Cell-Based Dose Confirmation HTS to Identify Inhibitors of Platelet Dense Granule Release. [Related pubchem assays: 1663 (Primary HTS), 1678 (Summary of Project)]; format: functional
[19] = biological target: Luciferin 4-monooxygenase (Photinus pyralis, UniProt P08659); assay: inhibition of purified Photinus pyralis luciferase – biochemical, luminescence, dose response (AID 1891)
[20] = HEK-293T viability loss after treatment – luminescence, T-cell screen hits, cytotoxicity control for TCR NF-kB inhibitor project, dose response (AID 489026); format: functional, cell-based;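 further: cells exposed to compound about 14 hours before the viability readout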
[21] = biological target: T5, Fatty acid synthase (Homo sapiens, UniProt P49327); assay: inhibition of human FAS-TE enzyme activity – biochemical, endpoint fluorescence intensity, uHTS hits, dose response (AID 624327); format: functional;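 further: fluorescence from hydrolysis of an O-methyl fluorescein acyl ester substrate by the enzyme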
[22] = biological target: T5, Fatty acid synthase; assay: inhibition of human FAS-TE enzyme activity – biochemical, kinetic fluorescence intensity, dose response (AID 624326); format: functional;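 further: rate of fluorescence rise from hydrolysis of a fluorogenic O-methyl fluorescein ester substrate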

Ras and Rab interactor 1/Tyrosine-protein kinase ABL1, sequence (P00519 whole entry): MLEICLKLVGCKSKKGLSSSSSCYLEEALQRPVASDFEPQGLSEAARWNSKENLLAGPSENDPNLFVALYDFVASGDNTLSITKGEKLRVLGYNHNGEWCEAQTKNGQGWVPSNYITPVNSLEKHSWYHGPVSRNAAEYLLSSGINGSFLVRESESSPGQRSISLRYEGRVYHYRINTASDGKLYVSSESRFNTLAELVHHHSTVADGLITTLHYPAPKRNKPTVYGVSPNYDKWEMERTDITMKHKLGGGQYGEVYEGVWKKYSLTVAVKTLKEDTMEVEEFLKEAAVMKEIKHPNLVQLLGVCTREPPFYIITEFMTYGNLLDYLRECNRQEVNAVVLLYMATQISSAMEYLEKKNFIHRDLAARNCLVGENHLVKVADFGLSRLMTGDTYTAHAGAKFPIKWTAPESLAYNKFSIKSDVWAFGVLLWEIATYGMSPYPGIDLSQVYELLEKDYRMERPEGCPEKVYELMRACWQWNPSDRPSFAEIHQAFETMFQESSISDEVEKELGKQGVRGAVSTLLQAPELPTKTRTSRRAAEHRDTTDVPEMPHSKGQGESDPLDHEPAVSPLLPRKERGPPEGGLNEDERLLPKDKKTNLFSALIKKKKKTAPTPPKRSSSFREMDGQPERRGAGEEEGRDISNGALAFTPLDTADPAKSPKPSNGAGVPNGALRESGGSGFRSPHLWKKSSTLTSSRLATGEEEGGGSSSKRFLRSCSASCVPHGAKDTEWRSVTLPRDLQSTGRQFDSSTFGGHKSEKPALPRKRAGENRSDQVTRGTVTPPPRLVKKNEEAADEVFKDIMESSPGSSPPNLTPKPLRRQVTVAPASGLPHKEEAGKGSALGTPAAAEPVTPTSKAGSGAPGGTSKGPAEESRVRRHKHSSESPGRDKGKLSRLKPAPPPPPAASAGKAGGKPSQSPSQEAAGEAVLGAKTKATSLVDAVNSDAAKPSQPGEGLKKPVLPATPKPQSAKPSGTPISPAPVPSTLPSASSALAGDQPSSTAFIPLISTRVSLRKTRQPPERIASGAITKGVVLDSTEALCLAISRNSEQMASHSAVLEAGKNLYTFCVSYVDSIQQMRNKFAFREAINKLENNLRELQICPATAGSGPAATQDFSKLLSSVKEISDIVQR
Ras and Rab interactor 1/Tyrosine-protein kinase ABL1, sequence (Q13671 whole entry): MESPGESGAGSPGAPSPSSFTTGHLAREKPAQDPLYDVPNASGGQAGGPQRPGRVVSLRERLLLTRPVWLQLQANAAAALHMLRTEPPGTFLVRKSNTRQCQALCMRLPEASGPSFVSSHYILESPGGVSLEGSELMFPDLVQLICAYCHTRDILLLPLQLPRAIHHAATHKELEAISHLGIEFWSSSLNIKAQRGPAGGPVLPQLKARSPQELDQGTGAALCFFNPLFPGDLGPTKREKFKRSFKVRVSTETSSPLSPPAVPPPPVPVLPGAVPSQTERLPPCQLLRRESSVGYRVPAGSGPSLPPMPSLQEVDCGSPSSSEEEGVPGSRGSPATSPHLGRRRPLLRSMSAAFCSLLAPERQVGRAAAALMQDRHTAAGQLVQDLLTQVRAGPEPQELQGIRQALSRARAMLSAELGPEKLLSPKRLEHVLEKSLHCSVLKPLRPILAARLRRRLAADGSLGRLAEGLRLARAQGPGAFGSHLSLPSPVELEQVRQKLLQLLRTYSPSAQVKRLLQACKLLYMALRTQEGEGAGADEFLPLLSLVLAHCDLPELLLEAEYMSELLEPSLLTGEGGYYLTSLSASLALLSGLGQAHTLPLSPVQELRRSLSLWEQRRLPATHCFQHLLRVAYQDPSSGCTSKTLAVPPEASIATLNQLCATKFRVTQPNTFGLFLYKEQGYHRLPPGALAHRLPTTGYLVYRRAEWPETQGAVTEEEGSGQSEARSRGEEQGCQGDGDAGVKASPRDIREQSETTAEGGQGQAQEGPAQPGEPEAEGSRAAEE
T2 sequence (Q00975 whole entry): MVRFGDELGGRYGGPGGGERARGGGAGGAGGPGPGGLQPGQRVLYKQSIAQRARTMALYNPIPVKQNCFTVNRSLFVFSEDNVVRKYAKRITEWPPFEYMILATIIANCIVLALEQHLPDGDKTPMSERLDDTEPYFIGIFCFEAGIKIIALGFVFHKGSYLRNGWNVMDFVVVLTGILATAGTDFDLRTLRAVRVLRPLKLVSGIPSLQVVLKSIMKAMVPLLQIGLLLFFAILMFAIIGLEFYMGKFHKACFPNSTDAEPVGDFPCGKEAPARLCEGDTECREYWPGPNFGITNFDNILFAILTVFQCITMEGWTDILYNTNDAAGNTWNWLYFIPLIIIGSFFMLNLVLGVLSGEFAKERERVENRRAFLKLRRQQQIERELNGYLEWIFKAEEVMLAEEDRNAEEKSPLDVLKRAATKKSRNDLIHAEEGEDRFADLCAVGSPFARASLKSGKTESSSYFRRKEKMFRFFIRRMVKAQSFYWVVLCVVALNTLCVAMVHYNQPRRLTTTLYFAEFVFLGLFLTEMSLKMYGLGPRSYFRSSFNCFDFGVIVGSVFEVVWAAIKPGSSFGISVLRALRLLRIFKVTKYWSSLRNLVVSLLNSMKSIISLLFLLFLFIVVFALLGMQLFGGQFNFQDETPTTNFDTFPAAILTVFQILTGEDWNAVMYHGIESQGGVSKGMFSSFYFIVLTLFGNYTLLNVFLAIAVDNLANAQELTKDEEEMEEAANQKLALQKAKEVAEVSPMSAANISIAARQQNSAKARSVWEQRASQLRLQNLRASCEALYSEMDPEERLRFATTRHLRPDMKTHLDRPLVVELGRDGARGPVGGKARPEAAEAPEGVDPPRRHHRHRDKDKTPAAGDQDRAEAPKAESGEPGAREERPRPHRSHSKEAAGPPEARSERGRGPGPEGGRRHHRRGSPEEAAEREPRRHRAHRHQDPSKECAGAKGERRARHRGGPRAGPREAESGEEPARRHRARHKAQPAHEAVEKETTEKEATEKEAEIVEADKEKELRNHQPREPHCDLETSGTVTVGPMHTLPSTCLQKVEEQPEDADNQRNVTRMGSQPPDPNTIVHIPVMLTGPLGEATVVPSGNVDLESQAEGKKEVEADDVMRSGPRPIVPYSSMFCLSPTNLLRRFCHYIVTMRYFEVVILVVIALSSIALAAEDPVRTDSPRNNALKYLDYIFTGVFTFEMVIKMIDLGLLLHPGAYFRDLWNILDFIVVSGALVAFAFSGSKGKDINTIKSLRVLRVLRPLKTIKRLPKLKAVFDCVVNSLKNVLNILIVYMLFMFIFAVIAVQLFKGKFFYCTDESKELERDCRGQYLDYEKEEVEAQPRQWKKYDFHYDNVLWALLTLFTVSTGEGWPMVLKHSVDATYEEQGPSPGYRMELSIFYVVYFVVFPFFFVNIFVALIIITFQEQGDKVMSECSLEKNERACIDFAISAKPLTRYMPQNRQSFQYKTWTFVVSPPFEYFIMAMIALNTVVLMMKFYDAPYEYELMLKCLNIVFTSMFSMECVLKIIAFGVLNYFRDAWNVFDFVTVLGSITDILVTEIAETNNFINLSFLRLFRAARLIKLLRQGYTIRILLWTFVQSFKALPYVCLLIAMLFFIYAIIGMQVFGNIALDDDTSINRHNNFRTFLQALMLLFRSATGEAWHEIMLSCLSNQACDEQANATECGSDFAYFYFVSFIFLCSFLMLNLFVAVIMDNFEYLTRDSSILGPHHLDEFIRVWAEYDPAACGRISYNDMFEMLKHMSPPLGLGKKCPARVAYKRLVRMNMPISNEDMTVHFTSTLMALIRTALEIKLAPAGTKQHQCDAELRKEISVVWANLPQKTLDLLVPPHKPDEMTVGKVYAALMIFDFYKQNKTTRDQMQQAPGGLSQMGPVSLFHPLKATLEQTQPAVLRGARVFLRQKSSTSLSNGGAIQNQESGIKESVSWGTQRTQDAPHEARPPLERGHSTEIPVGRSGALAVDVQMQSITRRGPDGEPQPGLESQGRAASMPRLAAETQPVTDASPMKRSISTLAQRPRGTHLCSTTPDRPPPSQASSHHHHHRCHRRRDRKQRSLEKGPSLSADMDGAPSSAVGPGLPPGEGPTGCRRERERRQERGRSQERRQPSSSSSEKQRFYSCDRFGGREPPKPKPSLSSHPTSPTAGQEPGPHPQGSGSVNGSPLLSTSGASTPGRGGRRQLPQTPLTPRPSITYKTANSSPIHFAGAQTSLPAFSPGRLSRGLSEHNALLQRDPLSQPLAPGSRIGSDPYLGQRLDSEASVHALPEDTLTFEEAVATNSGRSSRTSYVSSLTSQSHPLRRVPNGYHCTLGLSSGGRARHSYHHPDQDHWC
T2 sequence (Q02410 whole entry): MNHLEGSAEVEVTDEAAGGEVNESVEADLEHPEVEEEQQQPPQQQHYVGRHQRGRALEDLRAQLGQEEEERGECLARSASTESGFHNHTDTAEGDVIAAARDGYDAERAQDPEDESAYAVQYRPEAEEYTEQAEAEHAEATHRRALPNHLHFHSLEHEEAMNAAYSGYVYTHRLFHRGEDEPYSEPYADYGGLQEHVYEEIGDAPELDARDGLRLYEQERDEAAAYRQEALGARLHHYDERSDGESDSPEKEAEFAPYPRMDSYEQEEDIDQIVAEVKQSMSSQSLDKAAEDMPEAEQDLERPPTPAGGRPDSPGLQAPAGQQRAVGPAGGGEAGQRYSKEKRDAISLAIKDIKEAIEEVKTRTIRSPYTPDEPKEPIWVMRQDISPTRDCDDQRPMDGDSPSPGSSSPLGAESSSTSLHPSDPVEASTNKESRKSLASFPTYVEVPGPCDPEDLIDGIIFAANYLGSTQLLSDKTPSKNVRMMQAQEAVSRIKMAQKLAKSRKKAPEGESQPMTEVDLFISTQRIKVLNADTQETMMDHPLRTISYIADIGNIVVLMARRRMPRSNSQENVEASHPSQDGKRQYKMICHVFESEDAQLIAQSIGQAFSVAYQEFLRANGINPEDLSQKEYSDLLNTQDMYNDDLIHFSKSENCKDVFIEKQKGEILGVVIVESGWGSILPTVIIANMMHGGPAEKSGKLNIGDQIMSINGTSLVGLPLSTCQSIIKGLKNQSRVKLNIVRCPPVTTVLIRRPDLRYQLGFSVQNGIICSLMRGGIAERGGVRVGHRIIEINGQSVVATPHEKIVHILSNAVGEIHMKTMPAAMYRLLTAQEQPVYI

## CN(C)C(=O)CSc1nc(O)c2ccccc2n1
[1]
  IC50: > 79 µM (inactive)

## OC(c1cc(Cl)cc(Cl)c1)c1nc(-c2ccccc2C(F)(F)F)c[nH]1 (configuration not stated)
[2]
  IC50: 59.4 µM (inactive)
[3]
  IC50: 4.05 µM (active)
[4]
  IC50: 2.88 µM (active)

## CC(=O)Nc1cccc(NC(=O)c2cc(-c3cccnc3)nc3ccc(Br)cc23)c1
[1]
  IC50: 37.9 µM (inactive)

## CCN(CC)C(=O)CSc1nc(Cc2ccccc2)nc2ccccc12
[5]
  IC50: > 73.4 µM (inactive)

## Cn1sc(=O)c2cc(S(=O)(=O)NC3CC3)ccc21
[6]
  IC50: 57.3 µM (active)
[7]
  IC50: 9.45 µM (active)
[8]
  IC50: 15.6 µM (active)

## N#CC12CCCCC1CC1CCCCC1(C#N)N2Cc1cccnc1 (configuration not stated)
[5]
  IC50: 1.68 µM (active)

## COc1cc(-c2cc(C(=O)NCc3ccco3)c3ccccc3n2)cc(OC)c1OC
[1]
  IC50: 13.2 µM (active)

## O=C(CC1SCCNC1=O)Nc1cccc(Cl)c1 (configuration not stated)
[5]
  IC50: 20.8 µM (inactive)

## Cc1ncc(CO)c(/C=N/NC(=O)c2ccc(Br)cc2)c1O
[9]
  IC50: 14.4 µM (active)

## O=C(/C=C/c1ccco1)NC(=S)Nc1cccc(-c2nc3ccccc3o2)c1
[10]
  EC50: 12.1 µM (inconclusive)
[11]
  EC50: 3.83 µM (active)
[12]
  EC50: 9.72 µM (active)
[13]
  EC50: 88.3 µM (active)

## CCN(CC)C(=O)C(=O)c1cn(CC(=O)NCc2ccc3c(c2)OCO3)c2ccccc12
[2]
  IC50: 83.3 µM (inactive)
[3]
  IC50: 14.4 µM (inactive)
[4]
  IC50: 4.83 µM (active)

## COc1ccc(/C=C/C(=O)c2ccc(C(=O)/C=C/c3ccc(OC)c(OC)c3)cc2)cc1OC
[10]
  EC50: 10.4 µM (active)
[11]
  EC50: 10.7 µM (inconclusive)
[14]
  AC50: 25.9 µM (active)
[15]
  AC50: 69.1 µM (active)
[12]
  EC50: 7.92 µM (active)
[16]
  AC50: 5.18 µM (active)
[13]
  EC50: 27 µM (active)

## COc1cccc(NC(=O)NC2(C(F)(F)F)Oc3ccccc3O2)c1
[1]
  IC50: > 79 µM (inactive)

## CCc1ccc(C(=O)C(C)OC(=O)Cc2nnc(O)c3ccccc23)cc1 (configuration not stated)
[10]
  EC50: 17.9 µM (active)
[11]
  EC50: > 150 µM (inconclusive)
[12]
  EC50: 18.2 µM (active)
[13]
  EC50: 49.9 µM (inconclusive)

## COc1ccc(OC)c(C2CC(=O)c3c([nH]c(C(=O)OCC4CCCO4)c3C)C2)c1 (configuration not stated)
[1]
  IC50: 21.1 µM (active)

## O=C(O)C1CCCCC1C(=O)Nc1cc(C(F)(F)F)ccc1Cl (configuration not stated)
[17]
  IC50: 17.5 µM (active)

## CC(C)(C)C1CCc2c(C(=O)NNC(=O)CCC(=O)O)csc2C1 (configuration not stated)
[17]
  IC50: 14.5 µM (active)

## O=C(O)CCC(=O)Nc1sc2c(c1C(=O)Nc1cccc3ccccc13)CCCCC2
[17]
  IC50: 51 µM (active)

## CCc1nc2ccc(C(=O)Nc3cccc(OCC(=O)N(C)C)c3)cn2c1N(C)Cc1cc2ccccc2s1
[1]
  IC50: > 79 µM (inactive)

## Cc1ccccc1NC(=O)CN1C(=O)NC2(CCCCC2)C1=O
[17]
  IC50: 71.9 µM (active)

## CC(=O)Nc1ccc2c(c1)nc(O)c1ccccc12
[1]
  IC50: 34 µM (inactive)

## O=C(O)c1ccc(N=Nc2c(O)[nH]c3ccccc23)cc1
[17]
  IC50: 84.3 µM (active)
[18]
  EC50: 0.937 µM (active)
[19]
  EC50: 0.365 µM (active)

## NS(=O)(=O)c1ccc(CCNC(=O)c2cc(-c3cc(Cl)ccc3O)n[nH]2)cc1
[3]
  IC50: 119 µM (inactive)
[4]
  IC50: 14.4 µM (inactive)

## COc1cc(NS(=O)(=O)c2ccc(OC)c(C)c2C)c(OC)cc1Cl
[20]
  IC50: > 80 µM (inactive)

## Cc1c(OCc2nn[nH]n2)ccc2c(-c3ccccc3)cc(=O)oc12
[21]
  IC50: 1.59 µM (active)
[17]
  IC50: 95.1 µM (active)
[22]
  IC50: 1.61 µM (active)

## OCCNc1ncnc2c1ncn2[C@H]1CN(Cc2ccc(-c3ccccc3)cc2)C[C@@H](CO)O1
[5]
  IC50: 12.6 µM (inactive)

## O=C(/C=C/c1ccc([N+](=O)[O-])cc1)N(c1ccccn1)C1CCCCC1
[7]
  IC50: 29.1 µM (active)
[8]
  IC50: 10.5 µM (active)

## NS(=O)(=O)c1ccc(CCNC(=O)c2cc(-c3cc(Cl)ccc3O)[nH]n2)cc1
[2]
  IC50: 43.3 µM (inactive)
